From BigSolDB 2.1

Clc1ncnc2[nH]ccc12
solubility (mole fraction)
Settings	278.15 K	283.15 K	288.15 K	293.15 K	298.15 K	303.15 K	308.15 K	313.15 K	318.15 K	323.15 K
in THF	0.0461	0.0501	0.0544	0.0594	0.0644	0.0699	0.0757	0.0818	0.0881	0.0954
in acetone	0.0146	0.0165	0.0187	0.021	0.0238	0.0265	0.0296	0.0331	0.0368	0.0409
in acetonitrile	0.00218	0.00277	0.00338	0.00413	0.00502	0.00615	0.00736	0.00881	0.0104	0.0124
in ethanol	0.00849	0.0098	0.0113	0.0131	0.0151	0.0174	0.0199	0.0225	0.0256	0.0291
in ethyl acetate	0.0132	0.0151	0.0172	0.0194	0.0218	0.0246	0.0274	0.0307	0.034	0.0376
in isopropanol	0.00973	0.0113	0.0131	0.0151	0.0174	0.0198	0.0226	0.0258	0.0291	0.0328
in methanol	0.0065	0.00781	0.0093	0.011	0.013	0.0152	0.0177	0.0205	0.0236	0.0272
in n-butanol	0.0122	0.0139	0.0157	0.0179	0.0202	0.0227	0.0254	0.0285	0.0317	0.0354
in n-heptane	0.000583	0.00075	0.00095	0.0012	0.0015	0.00187	0.00229	0.00281	0.00343	0.00415
in n-hexane	0.000393	0.000511	0.000652	0.000851	0.00106	0.00132	0.00165	0.00202	0.0025	0.00306
in n-propanol	0.0098	0.0114	0.0134	0.0155	0.018	0.0205	0.0235	0.0269	0.0305	0.0347
in toluene	0.000808	0.000993	0.00124	0.00153	0.00186	0.00225	0.00272	0.00324	0.00387	0.00461
